Compound in test [1]: C[C@@H](Oc1cc(-c2cnn(C3CCNCC3)c2)cnc1N)c1c(Cl)ccc(F)c1Cl [CRIZOTINIB]
As to the kind of experiment: surviving fraction relative to DMSO-only wells; higher = less growth inhibition. Particulars: exposure time: 5 days. In outline: (§1)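 In 384-well plates, 250–500 log-phase tumour cells per well were given 24 hours before five days of continuous exposure to inhibitors at 0.5, 1, 5, 10, 50, 100, 500 and 1000 nM. Surviving fraction is luminescence from CellTiter-Glo, normalised to the median of wells containing DMSO alone. Reading took place after 10 minutes at room temperature.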

Compound in test [2]: CN1CCN(c2nc(C3=C(c4c[nH]c5ccccc45)C(=O)NC3=O)c3ccccc3n2)CC1 [SOTRASTAURIN/AEB071]
Described as above. To be noted: exposure time: 5 days. Summed up:
as §1

From the supplement of paper PMC6045584 come the findings set out here.

± gives the standard deviation of the averaged measurements.

For the test system SG31 HEADNECK, the surviving fraction in test [1] (1 nM) is 1.2 ± 0.13; in test [1] (5 nM), 1.01 ± 0.12; in test [1] (10 nM), 1.22 ± 0.24; in test [1] (50 nM), 1.17 ± 0.26; in test [1] (100 nM), 1.19 ± 0.18; in test [1] (500 nM) it was 0.856 ± 0.073. The surviving fraction in test [1] (1000 nM) came out at 0.6 ± 0.058; in test [2] (0.5 nM) it was 1.28 ± 0.26; in test [2] (1 nM), 1 ± 0.12; in test [2] (5 nM) it was 1.25 ± 0.26; in test [2] (10 nM) it was 1.12 ± 0.23; in test [2] (50 nM) it was 0.935 ± 0.12. For the same test system, the surviving fraction worked out at 1.03 ± 0.12 in test [2] (100 nM), 1.11 ± 0.12 in test [2] (500 nM) and 1.14 ± 0.032 in test [2] (1000 nM).
With SNU475 LIVER, the surviving fraction in test [1] (0.5 nM) came to 1.03 ± 0.029; in test [1] (1 nM) it was 1.08 ± 0.012; in test [1] (5 nM), 1.08 ± 0.062; in test [1] (10 nM) it was 1.1 ± 0.027; in test [1] (50 nM), 1.01 ± 0.016; in test [1] (100 nM) it was 1.02 ± 0.03. Also, the surviving fraction is 0.948 ± 0.052 in test [1] (500 nM); 0.809 ± 0.024 in test [1] (1000 nM); 0.996 ± 0.06 in test [2] (0.5 nM); 1.04 ± 0.055 in test [2] (1 nM); 1.01 ± 0.042 in test [2] (5 nM); 1.03 ± 0.034 in test [2] (10 nM). The surviving fraction is 0.9037 ± 0.0085 in test [2] (50 nM), 0.873 ± 0.029 in test [2] (100 nM), 0.932 ± 0.04 in test [2] (500 nM) and 0.908 ± 0.046 in test [2] (1000 nM).
Take CASKI CERVIX: the surviving fraction in test [1] (0.5 nM) came out at 0.955 ± 0.029; in test [1] (1 nM), 1 ± 0.067; in test [1] (10 nM) it was 1.04 ± 0.06; in test [1] (50 nM), 0.999 ± 0.053; in test [1] (100 nM), 0.984 ± 0.052; in test [1] (500 nM), 0.382 ± 0.063. Moreover, the surviving fraction was determined as 0.383 ± 0.029 in test [1] (1000 nM); 0.955 ± 0.051 in test [2] (0.5 nM); 0.962 ± 0.08 in test [2] (1 nM); 0.974 ± 0.035 in test [2] (5 nM); 0.906 ± 0.026 in test [2] (10 nM); 0.989 ± 0.12 in test [2] (50 nM). Further, the surviving fraction in test [2] (100 nM) was 0.898 ± 0.047; in test [2] (500 nM) it was 0.975 ± 0.021; in test [2] (1000 nM) it was 0.863 ± 0.036.
Take SUM149.B1*.S BREAST: the surviving fraction is 1.12 ± 0.043 in test [1] (0.5 nM); 1.19 ± 0.041 in test [1] (1 nM); 1.15 ± 0.052 in test [1] (5 nM); 1.14 ± 0.067 in test [1] (10 nM); 1.13 ± 0.058 in test [1] (50 nM); 1.18 ± 0.059 in test [1] (100 nM). In addition, the surviving fraction in test [1] (500 nM) stood at 1.11 ± 0.029; in test [1] (1000 nM), 1.03 ± 0.047; in test [2] (0.5 nM), 1.11 ± 0.028; in test [2] (1 nM), 1.08 ± 0.06; in test [2] (5 nM), 1.06 ± 0.093; in test [2] (10 nM), 1.07 ± 0.061. Further, the surviving fraction came to 1.11 ± 0.059 in test [2] (50 nM), 1.04 ± 0.024 in test [2] (100 nM), 1.04 ± 0.1 in test [2] (500 nM) and 1.03 ± 0.042 in test [2] (1000 nM).
Take OS25HAL BONE: the surviving fraction in test [1] (0.5 nM) was found to be 1.06 ± 0.031; in test [1] (1 nM), 1.01 ± 0.028; in test [1] (500 nM) it was 0.929 ± 0.098; in test [1] (1000 nM), 0.326 ± 0.016; in test [2] (0.5 nM), 1.02 ± 0.057; in test [2] (1 nM) it was 1.006 ± 0.0082. Also, the surviving fraction in test [2] (5 nM) came out at 1.03 ± 0.039; in test [2] (10 nM), 1.03 ± 0.014; in test [2] (50 nM) it was 1.09 ± 0.018; in test [2] (100 nM), 1.04 ± 0.042; in test [2] (500 nM), 1.09 ± 0.025; in test [2] (1000 nM), 1.03 ± 0.038.
Regarding MDAMB436 BREAST, the surviving fraction in test [1] (0.5 nM) stood at 1.01 ± 0.032; in test [1] (1 nM), 0.97 ± 0.11; in test [1] (5 nM), 1.02 ± 0.086; in test [1] (10 nM) it was 1.03 ± 0.13; in test [1] (50 nM) it was 0.965 ± 0.11; in test [1] (100 nM) it was 1.07 ± 0.022. Also, the surviving fraction in test [1] (1000 nM) amounted to 0.916 ± 0.1; in test [2] (0.5 nM), 0.976 ± 0.12; in test [2] (1 nM), 0.96 ± 0.057; in test [2] (5 nM) it was 0.932 ± 0.14; in test [2] (10 nM), 0.992 ± 0.13; in test [2] (50 nM), 0.943 ± 0.043. Besides, the surviving fraction stood at 0.816 ± 0.052 in test [2] (100 nM), 0.955 ± 0.073 in test [2] (500 nM) and 0.952 ± 0.056 in test [2] (1000 nM).
Turning to LM7 BONE, the surviving fraction amounted to 1.01 ± 0.043 in test [1] (1 nM); 1.07 ± 0.067 in test [1] (5 nM); 1.04 ± 0.051 in test [1] (50 nM); 1.12 ± 0.07 in test [1] (100 nM); 0.591 ± 0.046 in test [1] (500 nM); 0.221 ± 0.0062 in test [1] (1000 nM). In addition, the surviving fraction in test [2] (0.5 nM) was determined as 1.03 ± 0.077; in test [2] (1 nM) it was 0.945 ± 0.024; in test [2] (5 nM), 1.01 ± 0.075; in test [2] (10 nM), 1.05 ± 0.062; in test [2] (50 nM), 0.889 ± 0.051; in test [2] (100 nM) it was 0.907 ± 0.049. Moreover, the surviving fraction was found to be 0.803 ± 0.035 in test [2] (500 nM) and 0.811 ± 0.12 in test [2] (1000 nM).
As for HELA CERVIX, the surviving fraction came to 1.09 ± 0.057 in test [1] (0.5 nM); 1.07 ± 0.062 in test [1] (1 nM); 1.08 ± 0.055 in test [1] (5 nM); 1.09 ± 0.03 in test [1] (10 nM); 1.09 ± 0.12 in test [1] (50 nM); 1.07 ± 0.08 in test [1] (100 nM). The surviving fraction turned out to be 1.09 ± 0.072 in test [1] (500 nM); 0.581 ± 0.028 in test [1] (1000 nM); 1.03 ± 0.029 in test [2] (0.5 nM); 1.05 ± 0.052 in test [2] (1 nM); 1.05 ± 0.072 in test [2] (5 nM); 0.974 ± 0.043 in test [2] (10 nM). In addition, the surviving fraction was 1.14 ± 0.15 in test [2] (50 nM), 1.15 ± 0.063 in test [2] (100 nM), 1.11 ± 0.057 in test [2] (500 nM) and 1.12 ± 0.092 in test [2] (1000 nM).
